Measurements as given in patent US20240109853A1 (Shanghai Yao Yuan Biotechnology Co., Ltd., priority 2020, published 2024).
Counter-ions that a name gives are not always drawn.

Experiments:
[1] = test system: ALPK1-dependent NFκB reporter gene activation in HEK293 cells stably expressing an NF-kB reporter (G9 cells); test: NFκB gene reporter alkaline phosphatase assay; format: cell-based; conditions: Homo sapiens, HEK293; read-out: NFkB assay IC50
How it was run: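 HEK293 G9 cells carrying an NF-κB-driven alkaline phosphatase reporter, pretreated 30 min with serially diluted compound, then stimulated with D-glycero-D-manno-6-fluoro-heptose-1β-S-ADP. Reporter activity read with chromogenic pNPP substrate; IC50 from four-parameter logistic fit.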

[2] = biological target: ALPK1 (Homo sapiens (Human), UniProt Q96QP1); test: ALPK1 in vitro kinase assay (HTRF of TIFA phosphorylation); format: biochemical
Chain of ALPK1 (Q96QP1 whole entry): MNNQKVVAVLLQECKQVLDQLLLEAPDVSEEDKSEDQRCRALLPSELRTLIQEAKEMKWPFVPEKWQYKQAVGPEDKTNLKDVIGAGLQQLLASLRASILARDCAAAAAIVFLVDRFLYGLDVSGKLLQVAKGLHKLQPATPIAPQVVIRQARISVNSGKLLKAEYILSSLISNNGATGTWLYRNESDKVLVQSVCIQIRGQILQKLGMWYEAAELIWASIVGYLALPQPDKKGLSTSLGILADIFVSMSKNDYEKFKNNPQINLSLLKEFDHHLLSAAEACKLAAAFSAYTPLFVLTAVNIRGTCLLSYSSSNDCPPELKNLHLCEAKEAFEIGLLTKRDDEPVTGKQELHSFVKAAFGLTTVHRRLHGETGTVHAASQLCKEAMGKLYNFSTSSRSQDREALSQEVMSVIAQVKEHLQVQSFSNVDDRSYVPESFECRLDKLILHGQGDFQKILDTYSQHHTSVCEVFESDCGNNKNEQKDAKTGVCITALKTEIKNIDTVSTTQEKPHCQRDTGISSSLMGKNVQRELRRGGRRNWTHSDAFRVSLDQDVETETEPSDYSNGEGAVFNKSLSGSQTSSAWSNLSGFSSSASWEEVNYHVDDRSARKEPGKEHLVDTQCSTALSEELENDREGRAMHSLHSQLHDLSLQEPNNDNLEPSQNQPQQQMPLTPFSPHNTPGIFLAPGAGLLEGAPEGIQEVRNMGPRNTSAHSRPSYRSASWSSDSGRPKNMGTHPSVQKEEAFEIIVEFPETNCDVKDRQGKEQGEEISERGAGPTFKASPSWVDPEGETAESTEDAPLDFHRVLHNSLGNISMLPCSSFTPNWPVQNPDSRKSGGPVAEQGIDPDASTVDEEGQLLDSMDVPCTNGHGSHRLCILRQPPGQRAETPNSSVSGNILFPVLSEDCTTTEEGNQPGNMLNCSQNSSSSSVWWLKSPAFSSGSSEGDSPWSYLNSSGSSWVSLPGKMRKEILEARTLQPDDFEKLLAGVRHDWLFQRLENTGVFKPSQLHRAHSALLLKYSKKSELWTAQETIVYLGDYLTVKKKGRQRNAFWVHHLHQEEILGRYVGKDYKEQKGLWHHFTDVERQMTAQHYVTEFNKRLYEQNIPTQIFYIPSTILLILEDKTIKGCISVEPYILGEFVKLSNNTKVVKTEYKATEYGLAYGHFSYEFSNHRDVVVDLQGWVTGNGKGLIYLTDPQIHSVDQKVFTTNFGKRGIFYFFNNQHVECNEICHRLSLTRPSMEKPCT

Row | SMILES | IC50 [1] [nM] | IC50 [2] [nM]
1 | COc1ccc(C(C)(C)c2csc(NC(=O)NCc3ccc(NCCN)nc3)n2)cc1 [Example A202, 1-((6-((2-aminoethyl)amino)pyridin-3-yl)methyl)-3-(4-(2-(4-methoxyphenyl)propan-2-yl)thiazol-2-yl)urea] | 5710 | 34
2 | COc1ccc(C(C)(C)c2csc(NC(=O)NCc3ccc(C(=O)NCCN)nc3)n2)cc1 [Example A203, N-(2-aminoethyl)-5-((3-(4-(2-(4-methoxyphenyl)propan-2-yl)thiazol-2-yl)ureido)methyl)picolin-amide] | 5700 | 94
3 | CC(C)(c1ccc(Br)cc1)c1csc(NC(=O)NCc2ccc(N3CCC(N)CC3)cc2)n1 [Example A204, 1-(4-(4-aminopiperidin-1-yl)benzyl)-3-(4-(2-(4-bromophenyl)propan-2-yl)thiazol-2-yl)urea] | 1890 | 9
4 | CC(C)(c1ccc(Br)cc1)c1csc(NC(=O)NCc2ccc(NCCN)cc2)n1 [Example A205, 1-(4-((2-aminoethyl)amino)ben-zyl)-3-(4-(2-(4-bromophenyl)propan-2-yl)thiazol-2-yl)urea] | 1480 | 59
5 | CC(C)(c1ccc(Br)cc1)c1csc(NC(=O)NCc2ccnc(N3CCNCC3)c2F)n1 [Example A207, 1-(4-(2-(4-bromophenyl)propan-2-yl)thiazol-2-yl)-3-((3-fluoro-2-(piperazin-1-yl)pyridin-4-yl)methyl)urea] | 2180 | 99
6 | COc1ccc(C(C)(C)c2csc(NC(=O)NCc3cnc(N4CCN(CCO)CC4)nc3)n2)cc1 [Example A208, 1-((2-(4-(2-hydroxyethyl)piperazin-1-yl)pyrimidin-5-yl)methyl)-3-(4-(2-(4-methoxyphenyl)propan-2-yl)thiazol-2-yl)urea] | 760 | 78
7 | CC(C)(c1ccc(Br)cc1)c1csc(NC(=O)NCCN)n1 [Example A210, 1-(2-aminoethyl)-3-(4-(2-(4-bromophenyl)propan-2-yl)thiazol-2-yl)urea] | 4160 | 95
8 | CC(C)(c1ccc(Br)cc1)c1csc(NC(=O)NCc2ccc(N3CCC(CN)CC3)cc2)n1 [Example A211, 1-(4-(4-(aminomethyl)piperidin-1-yl)benzyl)-3-(4-(2-(4-bromophenyl)propan-2-yl)thiazol-2-yl)urea] | 2590 | 94
9 | CC(C)(c1ccc(Br)cc1)c1csc(NC(=O)NCc2ccc(OCCN)cc2)n1 [Example A212, 1-(4-(2-aminoethoxy)benzyl)-3-(4-(2-(4-bromophenyl)propan-2-yl)thiazol-2-yl)urea] | 2750 | 289
10 | CC1CN(c2ccc(CNC(=O)Nc3nc(C(C)(C)c4ccc(Br)cc4)cs3)cc2)CC(C)N1 (stereo not drawn) [Example A213, 1-(4-(2-(4-bromophenyl)propan-2-yl)thiazol-2-yl)-3-(4-(3,5-dimethylpiperazin-1-yl)benzyl)urea] | 6380 | 9
11 | CC(C)(c1ccc(Br)cc1)c1csc(NC(=O)NCc2ccc(CN3CCNCC3)c(F)c2)n1 [Example A214, 1-(4-(2-(4-bromophenyl)propan-2-yl)thiazol-2-yl)-3-(3-fluoro-4-(piperazin-1-ylmethyl)benzyl)urea] | 1560 | 40
12 | COc1ccc(C(C)(C)c2csc(NC(=O)NCc3cnc(N4CCC(C(N)=O)CC4)nc3)n2)cc1 [Example A215, 1-(5-((3-(4-(2-(4-methoxyphenyl)propan-2-yl)thiazol-2-yl)ureido)methyl)pyrimi-din-2-yl)piperidine-4-carboxamide] | 2210 | 150
13 | COc1ccc(C(C)(C)c2csc(NC(=O)NCc3cnc(N4CCN(CCO)CC4)c(F)c3)n2)cc1 [Example A216, 1-((5-fluoro-6-(4-(2-hydroxyethyl)piperazin-1-yl)pyridin-3-yl)methyl)-3-(4-(2-(4-methoxyphenyl)propan-2-yl)thiazol-2-yl)urea] | 1430 | 61
14 | COc1ccc(C(C)(C)c2csc(NC(=O)NCc3ccc(C(=O)N4CCC(N)C4)nc3)n2)cc1 (stereo not drawn) [Example A217, 1-((6-(3-aminopyrrolidine-1-carbonyl)pyridin-3-yl)methyl)-3-(4-(2-(4-methoxyphenyl)propan-2-yl)thiazol-2-yl)urea] | 32600 | 56
15 | COc1ccc(C(C)(C)c2csc(NC(=O)NCc3ccc(C(=O)NCCN)cc3)n2)cc1 [Example A218, N-(2-aminoethyl)-4-((3-(4-(2-(4-methoxyphenyl)propan-2-yl)thiazol-2-yl)ureido)methyl)benza-mide] | 6710 | 29
16 | CC(C)(c1ccc(Br)cc1)c1csc(NC(=O)NCc2ccc(N3CCNCC3)c(Cl)c2)n1 [Example A219, 1-(4-(2-(4-bromophenyl)propan-2-yl)thiazol-2-yl)-3-(3-chloro-4-(piperazin-1-yl)benzyl)urea] | 2730 | 46
17 | COc1cc(CNC(=O)Nc2nc(C(C)(C)c3ccc(Br)cc3)cs2)ccc1N1CCNCC1 [Example A220, 1-(4-(2-(4-bromophenyl)propan-2-yl)thiazol-2-yl)-3-(3-methoxy-4-(piperazin-1-yl)benzyl)urea] | 1320 | 44

Row | SMILES | IC50 [1] [nM] | IC50 [2] [nM]
18 | CC(C)Oc1cc(CNC(=O)Nc2nc(C(C)(C)c3ccc(Br)cc3)cs2)ccc1N1CCNCC1 [Example A221, 1-(4-(2-(4-bromophenyl)propan-2-yl)thiazol-2-yl)-3-(3-isopropoxy-4-(piperazin-1-yl)benzyl)urea] | 2380 | 144
19 | COc1ccc(C(C)(C)c2csc(NC(=O)NCc3cnc(N4CCNCC4)nc3C)n2)cc1 [Example A223, 1-(4-(2-(4-methoxyphenyl)propan-2-yl)thiazol-2-yl)-3-((4-methyl-2-(piperazin-1-yl)pyrimidin-5-yl)methyl)urea] | 760 | 49
20 | COc1ccc(C(C)(C)c2csc(NC(=O)NCc3ccc(C4CCNCC4)c(F)c3)n2)cc1 [Example A224, 1-(3-fluoro-4-(piperidin-4-yl)benzyl)-3-(4-(2-(4-methoxyphenyl)propan-2-yl)thiazol-2-yl)urea] | 730 | 21
21 | COc1ccc(C(C)(C)c2csc(NC(=O)NCc3ccc(N4CCNCC4)c(OC(C)C)c3)n2)cc1 [Example A225, 1-(3-isopropoxy-4-(piperazin-1-yl)benzyl)-3-(4-(2-(4-methoxyphenyl)propan-2-yl)thiazol-2-yl)urea] | 1050 | 108
22 | COc1ccc(C(C)(C)c2csc(NC(=O)NCCCN3CCC(N)C3)n2)cc1 (stereo not drawn) [Example A226, 1-(3-(3-aminopyrrolidin-1-yl)propyl)-3-(4-(2-(4-methoxyphenyl)propan-2-yl)thiazol-2-yl)urea] | 4820 | 100
23 | COc1ccc(C(C)(C)c2csc(NC(=O)NCCN3CCC(N)C3)n2)cc1 (stereo not drawn) [Example A227, 1-(2-(3-aminopyrrolidin-1-yl)ethyl)-3-(4-(2-(4-methoxyphenyl)propan-2-yl)thiazol-2-yl)urea] | 3120 | 138
24 | COc1ccc(C(C)(C)c2csc(NC(=O)NCCCN3CCNC(C)C3)n2)cc1 (stereo not drawn) [Example A228, 1-(4-(2-(4-methoxyphenyl)propan-2-yl)thiazol-2-yl)-3-(3-(3-methylpiperazin-1-yl)propyl)urea] | 3860 | 100
25 | COc1ccc(C(C)(C)c2csc(NC(=O)NCCCS(=O)(=O)N3CCC(N)C3)n2)cc1 (stereo not drawn) [Example A229, 1-(3-((3-aminopyrrolidin-1-yl)sulfonyl)propyl)-3-(4-(2-(4-methoxyphenyl)propan-2-yl)thiazol-2-yl)urea] | 2270 | 169
26 | COc1ccc(C(C)(C)c2csc(NC(=O)NCCCS(=O)(=O)N3CCNCC3)n2)cc1 [Example A230, 1-(4-(2-(4-methoxyphenyl)propan-2-yl)thiazol-2-yl)-3-(3-(piperazin-1-ylsulfonyl)propyl)urea] | 3010 | 127
27 | COc1ccc(C(C)(C)c2csc(NC(=O)NCc3cc(F)c(N4CCNCC4)cc3F)n2)cc1 [Example A231, 1-(2,5-difluoro-4-(piperazin-1-yl)benzyl)-3-(4-(2-(4-methoxyphenyl)propan-2-yl)thiazol-2-yl)urea hydrochloride] | 3360 | 27
28 | COc1ccc(C(C)(C)c2csc(NC(=O)NCc3cc(F)c(N4CC5CC(C4)N5)c(F)c3)n2)cc1 [Example A232] | 590 | 88
29 | COc1ccc(C(C)(C)c2csc(NC(=O)N3CC(c4ccc(N5CCNCC5)cc4)C3)n2)cc1 [Example A233, N-(4-(2-(4-methoxyphenyl)propan-2-yl)thiazol-2-yl)-3-(4-(piperazin-1-yl)phenyl)azetidine-1-carboxamide] | 330 | 43
30 | O=C(Nc1nc(C2(c3ccc(Br)cc3)CCCC2)cs1)N1CC(c2ccc(N3CCNCC3)c(F)c2)C1 [Example A236, N-(4-(1-(4-bromophenyl)cyclopent-yl)thiazol-2-yl)-3-(3-fluoro-4-(piperazin-1-yl)phenyl)azetidine-1-carboxamide] | 4500 | 13
31 | C#CC(C)(c1ccc(Br)cc1)c1csc(NC(=O)N2CC(c3ccc(N4CCNCC4)cc3)C2)n1 (stereo not drawn) [Example A237, N-(4-(2-(4-bromophenyl)but-3-yn-2-yl)thiazol-2-yl)-3-(4-(piperazin-1-yl)phenyl)azetidine-1-carboxamide] | 610 | 7
32 | C#CC(C)(c1ccc(Br)cc1)c1csc(NC(=O)NCC2(O)CCNCC2)n1 (stereo not drawn) [Example A238, 1-(4-(2-(4-bromophenyl)but-3-yn-2-yl)thiazol-2-yl)-3-((4-hydroxypiperidin-4-yl)methyl)urea] | 27000 | 19
33 | COc1ccc(C(C)(C)c2csc(NC(=O)NC3(c4ccc(N5CCNCC5)cc4)CC3)n2)cc1 [Example A240, 1-(4-(2-(4-methoxyphenyl)propan-2-yl)thiazol-2-yl)-3-(1-(4-(piperazin-1-yl)phenyl)cyclopropyl)u-rea] | 1880 | 97
